According to paper PMC11923213, “Structural characterization reveals substrate recognition by the taurine transporter TauT” (Cell Discovery, 2025):
Residue numbers refer to the chain shown, from its start.

Experiments:
Format in all cases: cell-based
[1] = target: T1, TauT (taurine transporter, SLC6A6; TauT^WT) (Homo sapiens, UniProt P31641); assay: Xenopus laevis oocytes, β-alanine-induced inward current
T1 construct: wild-type TauT expressed in Xenopus laevis oocytes for electrophysiology; cryo-EM sample details only in supplement
T1 sequence (P31641 1-620): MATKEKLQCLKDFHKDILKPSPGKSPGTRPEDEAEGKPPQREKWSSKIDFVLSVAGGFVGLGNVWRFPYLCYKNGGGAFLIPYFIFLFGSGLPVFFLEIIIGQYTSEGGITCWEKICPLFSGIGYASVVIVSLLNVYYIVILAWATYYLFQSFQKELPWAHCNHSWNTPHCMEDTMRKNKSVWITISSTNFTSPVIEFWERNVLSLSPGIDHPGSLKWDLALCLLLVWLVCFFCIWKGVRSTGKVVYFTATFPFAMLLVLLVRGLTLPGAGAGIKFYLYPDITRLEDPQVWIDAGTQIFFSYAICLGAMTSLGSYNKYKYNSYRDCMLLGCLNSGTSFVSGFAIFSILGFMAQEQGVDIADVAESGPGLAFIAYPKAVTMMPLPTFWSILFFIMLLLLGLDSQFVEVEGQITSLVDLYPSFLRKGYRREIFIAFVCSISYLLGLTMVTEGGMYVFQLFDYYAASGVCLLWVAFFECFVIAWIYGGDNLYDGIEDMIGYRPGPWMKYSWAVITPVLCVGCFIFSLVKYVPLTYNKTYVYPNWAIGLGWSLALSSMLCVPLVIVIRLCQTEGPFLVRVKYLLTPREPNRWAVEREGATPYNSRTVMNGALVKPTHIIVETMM

[2] = target: T1, TauT (taurine transporter, SLC6A6; TauT^WT); assay: two-electrode voltage clamp in Xenopus laevis oocytes, taurine-induced inward current
[3] = target: T2, TauT (taurine transporter, SLC6A6) (Homo sapiens, UniProt P31641, E406T); assay: Xenopus laevis oocytes, taurine-induced inward current
T2 construct: wild-type TauT expressed in Xenopus laevis oocytes for electrophysiology; cryo-EM sample details only in supplement
T2 sequence (P31641 1-620 E406T): T1 sequence (P31641 1-620) with E406T

EC50 [1]	EC50 [2]	EC50 [3]	SMILES
5.6 µM			NCCC(=O)O [β-alanine]
	2.9 µM	50.3 µM	NCCS(=O)(=O)O [taurine]
